Like-named read-outs stand apart in the source and are kept apart here.
Test system: 134 cancer cell lines
Assay: Cell viability assay (ATPlite, 72 hours), IC50 on cancer cell line panel

Question: C=CC(=O)N1CCC([C@@H]2CCNc3c(C(N)=O)c(-c4ccc(Oc5ccccc5)cc4)nn32)CC1 [zanubrutinib] was tested. Which IC50 (Homo sapiens, Kasumi 1, read-out: IC50 in cell proliferation assay) did it give?
Answer: The IC50 was 3.36 µM.

Question: What about the IC50 (Homo sapiens, LC-2-ad, read-out: IC50 in cell proliferation assay) of the same compound?
Answer: Its IC50 is 16.5 µM.

Question: What about the IC50 (Homo sapiens, LNCaP-Clone-FGC, read-out: IC50 in cell proliferation assay) of the same compound?
Answer: The IC50 was 13.7 µM.

Question: What about the IC50 (Homo sapiens, LS174T, read-out: IC50 in cell proliferation assay) of the same compound?
Answer: Its IC50 is 11.5 µM.

Question: What about the IC50 (Homo sapiens, LS-411N, read-out: IC50 in cell proliferation assay) of the same compound?
Answer: The IC50 was 12.4 µM.

Question: What about the IC50 (Homo sapiens, LoVo, read-out: IC50 in cell proliferation assay) of the same compound?
Answer: Its IC50 is 24.9 µM.

Question: What about the IC50 (Homo sapiens, MCF7, read-out: IC50 in cell proliferation assay) of the same compound?
Answer: The IC50 was greater than 31.6 µM.

Question: And the IC50 (Homo sapiens, MDA-MB-231, read-out: IC50 in cell proliferation assay)?
Answer: Its IC50 is greater than 31.6 µM.

Question: What about the IC50 (Homo sapiens, MDA-MB-453, read-out: IC50 in cell proliferation assay) of the same compound?
Answer: The IC50 was 4.19 µM.

Question: And the IC50 (Homo sapiens, MDA-MB-468, read-out: IC50 in cell proliferation assay)?
Answer: Its IC50 is 3.9 µM.

Question: And the IC50 (Homo sapiens, MG-63, read-out: IC50 in cell proliferation assay)?
Answer: The IC50 was 29.3 µM.

Question: What about the IC50 (Homo sapiens, MIA PaCa-2, read-out: IC50 in cell proliferation assay) of the same compound?
Answer: The IC50 was greater than 31.6 µM.

Question: What about the IC50 (Homo sapiens, MKN-45, read-out: IC50 in cell proliferation assay) of the same compound?
Answer: Its IC50 is greater than 31.6 µM.

Question: And the IC50 (Homo sapiens, MOLM-13, read-out: IC50 in cell proliferation assay)?
Answer: Its IC50 is 2.06 µM.

Question: What about the IC50 (Homo sapiens, MOLT-4, read-out: IC50 in cell proliferation assay) of the same compound?
Answer: Its IC50 is 16.5 µM.

Question: What about the IC50 (Homo sapiens, MV4-11, read-out: IC50 in cell proliferation assay) of the same compound?
Answer: The IC50 was 3.72 µM.

Question: And the IC50 (Homo sapiens, MeWo, read-out: IC50 in cell proliferation assay)?
Answer: The IC50 was greater than 31.6 µM.

Question: And the IC50 (Homo sapiens, NCCIT, read-out: IC50 in cell proliferation assay)?
Answer: Its IC50 is 11.4 µM.

Question: What about the IC50 (Homo sapiens, NCI-H82, read-out: IC50 in cell proliferation assay) of the same compound?
Answer: Its IC50 is greater than 31.6 µM.

Question: And the IC50 (Homo sapiens, NCI-H460, read-out: IC50 in cell proliferation assay)?
Answer: The IC50 was greater than 31.6 µM.

Question: And the IC50 (Homo sapiens, NCI-H661, read-out: IC50 in cell proliferation assay)?
Answer: Its IC50 is 0.612 µM.

Question: And the IC50 (Homo sapiens, NCI-H716, read-out: IC50 in cell proliferation assay)?
Answer: Its IC50 is 11.7 µM.

Question: And the IC50 (Homo sapiens, NCI-H1650, read-out: IC50 in cell proliferation assay)?
Answer: The IC50 was 13.9 µM.

Question: What about the IC50 (Homo sapiens, NCI-H1975, read-out: IC50 in cell proliferation assay) of the same compound?
Answer: Its IC50 is 4.6 µM.

Question: What about the IC50 (Homo sapiens, NCI-H2228, read-out: IC50 in cell proliferation assay) of the same compound?
Answer: Its IC50 is greater than 31.6 µM.

Question: What about the IC50 (Homo sapiens, OVCAR-3, read-out: IC50 in cell proliferation assay) of the same compound?
Answer: The IC50 was 1.53 µM.

Question: And the IC50 (Homo sapiens, PFSK-1, read-out: IC50 in cell proliferation assay)?
Answer: Its IC50 is 18 µM.

Question: And the IC50 (Homo sapiens, RL95-2, read-out: IC50 in cell proliferation assay)?
Answer: Its IC50 is 1.17 µM.

Question: And the IC50 (Homo sapiens, RPMI-7951, read-out: IC50 in cell proliferation assay)?
Answer: The IC50 was greater than 31.6 µM.

Question: What about the IC50 (Homo sapiens, RS4-11, read-out: IC50 in cell proliferation assay) of the same compound?
Answer: The IC50 was 26.5 µM.

Question: And the IC50 (Homo sapiens, SHP77, read-out: IC50 in cell proliferation assay)?
Answer: Its IC50 is greater than 31.6 µM.

Question: And the IC50 (Homo sapiens, SK-BR-3, read-out: IC50 in cell proliferation assay)?
Answer: The IC50 was 0.141 µM.

Question: What about the IC50 (Homo sapiens, SK-N-AS, read-out: IC50 in cell proliferation assay) of the same compound?
Answer: The IC50 was 15.5 µM.

Question: And the IC50 (Homo sapiens, SK-N-FI, read-out: IC50 in cell proliferation assay)?
Answer: The IC50 was greater than 31.6 µM.

Question: And the IC50 (Homo sapiens, SK-N-MC, read-out: IC50 in cell proliferation assay)?
Answer: Its IC50 is 23.1 µM.

Question: And the IC50 (Homo sapiens, SK-N-SH, read-out: IC50 in cell proliferation assay)?
Answer: Its IC50 is greater than 31.6 µM.

Question: And the IC50 (Homo sapiens, SNU-5, read-out: IC50 in cell proliferation assay)?
Answer: Its IC50 is 8.94 µM.

Question: What about the IC50 (Homo sapiens, SNU-16, read-out: IC50 in cell proliferation assay) of the same compound?
Answer: Its IC50 is 8.54 µM.

Question: What about the IC50 (Homo sapiens, SNU-C2B, read-out: IC50 in cell proliferation assay) of the same compound?
Answer: The IC50 was 0.866 µM.

Question: And the IC50 (Homo sapiens, SU-DHL-1, read-out: IC50 in cell proliferation assay)?
Answer: The IC50 was 16.8 µM.

Question: What about the IC50 (Homo sapiens, SU-DHL-6, read-out: IC50 in cell proliferation assay) of the same compound?
Answer: The IC50 was 0.00375 µM.

Question: What about the IC50 (Homo sapiens, SUP-T1, read-out: IC50 in cell proliferation assay) of the same compound?
Answer: The IC50 was 17.5 µM.

Question: What about the IC50 (Homo sapiens, SW48, read-out: IC50 in cell proliferation assay) of the same compound?
Answer: The IC50 was 0.043 µM.

Question: What about the IC50 (Homo sapiens, SW480, read-out: IC50 in cell proliferation assay) of the same compound?
Answer: The IC50 was 9.56 µM.

Question: And the IC50 (Homo sapiens, SW626, read-out: IC50 in cell proliferation assay)?
Answer: The IC50 was 2.71 µM.

Question: And the IC50 (Homo sapiens, SW780, read-out: IC50 in cell proliferation assay)?
Answer: Its IC50 is 5.82 µM.

Question: And the IC50 (Homo sapiens, SW837, read-out: IC50 in cell proliferation assay)?
Answer: Its IC50 is 6 µM.

Question: What about the IC50 (Homo sapiens, SW872, read-out: IC50 in cell proliferation assay) of the same compound?
Answer: Its IC50 is greater than 31.6 µM.

Question: And the IC50 (Homo sapiens, SW900, read-out: IC50 in cell proliferation assay)?
Answer: Its IC50 is 5.84 µM.

Question: What about the IC50 (Homo sapiens, SW948, read-out: IC50 in cell proliferation assay) of the same compound?
Answer: The IC50 was greater than 31.6 µM.

Question: What about the IC50 (Homo sapiens, SW982, read-out: IC50 in cell proliferation assay) of the same compound?
Answer: Its IC50 is greater than 31.6 µM.

Question: What about the IC50 (Homo sapiens, SW-620, read-out: IC50 in cell proliferation assay) of the same compound?
Answer: Its IC50 is 4.75 µM.

Question: And the IC50 (Homo sapiens, T98G, read-out: IC50 in cell proliferation assay)?
Answer: Its IC50 is greater than 31.6 µM.

Question: And the IC50 (Homo sapiens, TCC-SUP, read-out: IC50 in cell proliferation assay)?
Answer: The IC50 was greater than 31.6 µM.

Question: What about the IC50 (Homo sapiens, THP-1, read-out: IC50 in cell proliferation assay) of the same compound?
Answer: The IC50 was greater than 31.6 µM.

Question: What about the IC50 (Homo sapiens, U2OS, read-out: IC50 in cell proliferation assay) of the same compound?
Answer: The IC50 was 10.7 µM.

Question: And the IC50 (Homo sapiens, U-87 MG, read-out: IC50 in cell proliferation assay)?
Answer: Its IC50 is greater than 31.6 µM.

Question: What about the IC50 (Homo sapiens, U-118-MG, read-out: IC50 in cell proliferation assay) of the same compound?
Answer: Its IC50 is greater than 31.6 µM.

Question: What about the IC50 (Homo sapiens, UMUC3, read-out: IC50 in cell proliferation assay) of the same compound?
Answer: The IC50 was 24.1 µM.

Question: What about the IC50 (Hs766T, read-out: IC50 in cell proliferation assay) of the same compound?
Answer: The IC50 was greater than 31.6 µM.

Question: What about the IC50 (L-82, read-out: IC50 in cell proliferation assay) of the same compound?
Answer: Its IC50 is 17.6 µM.

Question: And the IC50 (Rh30, read-out: IC50 in cell proliferation assay)?
Answer: Its IC50 is 17.4 µM.

Reference: publication PMC9516332 (Frontiers in Oncology, 2022)
